Reference: paper PMC8876244, “Effective Synthesis and Antifouling Activity of Dolastatin 16 Derivatives” (Marine Drugs, 2022)
≈ marks a conversion by molar mass, not a printed value. Like-named read-outs stand apart in the source and are kept apart here. Starred links: 1 amine or outer side, 2 acyl side, 3 side chain; linkers in the order of their positions; H or OH if unused. Non-standard residues stand in square brackets, D forms with d. Residues, ends and D or L forms follow the SMILES beside them. *: point of attachment. X3 = CC(=O)Oc1ccc(C[C@@H](C)[C@H](N[*:1])C(=O)[*:2])cc1; X4 = CC(C)[C@@H](N[*:1])[C@@H](C)C(=O)[*:2]; X1 = CC(Cc1ccccc1)C(N[*:1])C(=O)[*:2]; X2 = CC(C)C(N[*:1])C(C)C(=O)[*:2]; X5 = C[C@H](OCc1ccccc1)C(=O)*; dNMeV = CN[C@@H](C(=O)O)C(C)C; dHiv = CC(C)[C@@H](O)C(=O)O; Hiv = CC(C)[C@H](O)C(=O)O; Lac = C[C@H](O)C(=O)O; OBn = c1ccc(CO*)cc1

Assays:
[1] = system: cypris larvae of the barnacle Amphibalanus amphitrite; experiment: Antifouling assay: inhibition of settlement of cypris larvae, 48 h exposure; format: in vivo; conditions: for EC50: Amphibalanus amphitrite, 48 h
Description: The antifouling activities of synthetic samples were evaluated as EC50 values against the cypris larvae of A. amphitrite by exposure of each compound for 48 h (Table 1, Figure 2). […] We next investigated the biological activity of the fragments.
(§1) Antifouling assay against larvae of the barnacle Amphibalanus amphitrite was conducted according to the previous literature. The adult barnacles, A. amphitrite, obtained from oyster farms in Lake Hamana and a pier of Shimizu bay, Shizuoka, were kept in an aquarium at 20 °C and were fed on Artemia salina nauplii. Broods were released as I–II stage nauplii upon immersion in seawater after drying overnight. The nauplii (1.0~3.0 indiv./mL) thus obtained were cultured in 2.0 L filtered (0.2 μm) natural seawater (diluted by DW: salinity 28) containing penicillin G (20 μg/mL) and streptomycin sulfate (30 μg/mL) at 25 °C and were fed on the diatom Chaetoceros gracillis at concentrations of 40 × 10^4 cells/mL. Larvae reached the cyprid stage in 5 days. The cyprids were collected, then stored at 4 °C until use (0-day-old).
(§2) The test compounds were dissolved in ethanol and aliquots of the solution (20 μL) were transferred to wells of a 24-well polystyrene culture plates and then air-dried for 3 h at room temperature and CuSO4 was used as positive compound. Four wells were used for each concentration (0.03, 0.1, 0.3, 1.0, 3.0, 10.0 μg/mL). To each well were added filtered ([…]) natural seawater (2.0 mL, salinity 28) and six 2-day-old cyprids. The plates were kept in the dark at 25 °C for 48 h. […] Three or four trials were carried out for each concentration. Antifouling activity (EC50) indicates the concentration reducing the larval settlement to 50% of the control (non-treatment) by Probit analysis. Toxicity of compounds were expressed as LC50 value, which indicates the concentration showing 50% mortality estimated by Probit analysis.

[2] = Antifouling assay: toxicity (mortality) to cypris larvae, 48 h exposure; conditions: Amphibalanus amphitrite (barnacle, cypris larvae), in vivo, 50% mortality of cyprids, highest concentration 10.0 μg/mL, read-out: LC50 (50% lethal concentration)
Description: as §1, §2

[3] = system: cypris larvae of the barnacle Amphibalanus amphitrite; conditions: previous compounds and positive control, cited from earlier work; for EC50: read-out: EC50 (μM), antifouling activity
[4] = system: larval settlement and metamorphosis of the barnacle Amphibalanus amphitrite; set-up: method as in PMID 20658384; conditions: cited from earlier work
[5] = system: barnacle Amphibalanus amphitrite; set-up: method as in PMID 20658384; conditions: cited from earlier work
[6] = system: human cancer cell lines such as NCI-H460, KM20L2 and SF-295; conditions: cited from earlier work
[7] = system: cypris larvae of the barnacle Amphibalanus amphitrite; conditions: previous compounds and positive control; cited from earlier work
[8] = larval settlement reduced to 50% of control, Probit analysis, read-out: EC50 (50% effective concentration), antifouling activity
[9] = larval settlement, read-out: EC50 (μM), antifouling activity

| SMILES | EC50 [1, 8] | EC50 [1, 9] | LC50 [2] | EC50 (50% effective concentration), antifouling activity [3] | EC50 [3] | LC50 (50% lethal concentration) [7] | further results |
| --- | --- | --- | --- | --- | --- | --- | --- |
| CC(C)[C@@H](NC(=O)[C@@H]1CCCN1C(=O)[C@@H](NC(=O)OC(C)(C)C)[C@H](C)Cc1ccccc1)[C@@H](C)C(=O)OCc1ccccc1 [Boc-3] | < 1 µg/mL | 1.3 µM | > 10 µg/mL |  |  |  |  |
| CC(C)C1NC(=O)[C@@H]2CCCN2C(=O)C(C(C)Cc2ccccc2)NC(=O)[C@@H]2CCCN2C(=O)[C@@H](C(C)C)N(C)C(=O)[C@@H](C(C)C)OC(=O)[C@@H]2CCCN2C(=O)[C@H](C)OC(=O)C1C (some centres unmarked) [Compound 1, Dolastatin 16] (cyclo([Lac]P[dHiv][dNMeV]P[X1]P[X2])) |  |  |  | <0.03 µg/mL | < 0.03 µM | >10 µg/mL | EC50 (50% effective concentration) [4]: 0.003 µg/mL (≈ 0.00341 µM); LC50 (50% lethal concentration) [5]: 20 µg/mL (≈ 22.8 µM); Growth inhibition of human cancer cell lines ([6]; 1 isolated from the natural sample): strong growth inhibitions; Anticancer activity of synthetic sample versus isolated compound ([6]; synthetic 1): much less potent than the isolated compound |
| CC(C)[C@H](OC(=O)[C@@H]1CCCN1C(=O)[C@H](C)OCc1ccccc1)C(=O)N(C)[C@@H](C(=O)N1CCC[C@H]1C(=O)O)C(C)C [Compound 2] (X5-P[Hiv][dNMeV]P-OH) |  |  |  | >10 µg/mL | > 17 µM | >10 µg/mL |  |
| CC(C)[C@@H](NC(=O)[C@@H]1CCCN1C(=O)[C@@H](N)[C@H](C)Cc1ccccc1)[C@@H](C)C(=O)OCc1ccccc1 [Compound 3] |  |  |  | 1.17 µg/mL (≈ 2.3 µM) | 1.92 µM | >10 µg/mL |  |
| CC(C)[C@@H](NC(=O)[C@@H]1CCCN1C(=O)[C@@H](NC(=O)OC(C)(C)C)[C@H](C)Cc1ccc(O)cc1)[C@@H](C)C(=O)OCc1ccccc1 [Compound 21, Boc-Dpv(OH)-Pro-Dml-OBn] | < 1 µg/mL | 0.96 µM | > 10 µg/mL |  |  |  |  |
| CC(C)[C@@H](NC(=O)[C@@H]1CCCN1C(=O)[C@@H](NC(=O)OC(C)(C)C)[C@H](C)Cc1ccc(OCc2ccccc2)cc1)[C@@H](C)C(=O)OCc1ccccc1 [Compound 22, Boc-Dpv(OBn)-Pro-Dml-OBn] | 4.62 µg/mL | 6.47 µM | > 10 µg/mL |  |  |  |  |
| CC(=O)Oc1ccc(C[C@@H](C)[C@@H]2NC(=O)[C@@H]3CCCN3C(=O)[C@@H](C(C)C)N(C)C(=O)[C@H](C(C)C)OC(=O)[C@@H]3CCCN3C(=O)[C@H](C)OC(=O)[C@H](C)[C@@H](C(C)C)NC(=O)[C@@H]3CCCN3C2=O)cc1 [Compound 24, Dolastatin 16 Acetate] (cyclo([Hiv][dNMeV]P[X3]P[X4][Lac]P)) |  |  |  |  |  |  | EC50 ([1]; read-out: EC50 (50% effective concentration), antifouling activity): 1.74 µg/mL; EC50 ([1]; read-out: EC50 (μM), antifouling activity): 1.86 µM; Antifouling activity (in words) ([1]; settlement of cypris larvae): much less potent than dolastatin 16; LC50 at 48 h [2]: > 10 µg/mL |
| CC(C)[C@H](OC(=O)[C@@H]1CCCN1C(=O)[C@H](C)OCc1ccccc1)C(=O)N(C)[C@@H](C(=O)N1CCC[C@H]1C(=O)OCc1ccccc1)C(C)C [Compound 25, BnO-Lac-Pro-O-Hiv-D-MeVal-Pro-OBn] (X5-P[Hiv][dNMeV]P-OBn) | < 1 µg/mL | 1.32 µM | > 10 µg/mL |  |  |  |  |
| CC(C)[C@H](OC(=O)[C@@H]1CCCN1C(=O)OC(C)(C)C)C(=O)N(C)[C@@H](C(=O)N1CCC[C@H]1COCc1ccccc1)C(C)C [Compound 29, Boc-Pro-O-Hiv-D-MeVal-Pro-CH2OBn] | 3.27 µg/mL | 6.52 µM | > 10 µg/mL |  |  |  |  |
| O=S(=O)([O-])[O-].[Cu+2] [CuSO4, reference compound] |  |  |  | 0.10 µg/mL | 0.63 µM | >10 µg/mL |  |
